From patent US8901127B2, “Pyridazin derivatives as antagonists of the bradykinin B1 receptor” (Boehringer Ingelheim International GmbH, priority 2010, dated 2014)
pKi: −log10 of the molar value.

Biological target: T1, cynomolgus BK1-receptor (Macaca fascicularis, UniProt Q3BCU0)
T1 construct: expressed in transfected cells; host or cells: CHO cells
T1 sequence (Q3BCU0 1-352): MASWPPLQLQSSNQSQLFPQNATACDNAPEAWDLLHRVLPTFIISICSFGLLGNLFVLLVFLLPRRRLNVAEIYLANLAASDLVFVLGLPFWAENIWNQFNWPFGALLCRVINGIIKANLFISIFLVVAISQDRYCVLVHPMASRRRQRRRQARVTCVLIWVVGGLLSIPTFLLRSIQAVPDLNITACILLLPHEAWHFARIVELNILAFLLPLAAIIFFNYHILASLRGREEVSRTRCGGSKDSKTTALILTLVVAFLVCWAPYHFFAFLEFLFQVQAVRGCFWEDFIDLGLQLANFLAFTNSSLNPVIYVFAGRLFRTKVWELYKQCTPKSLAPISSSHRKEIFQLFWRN
Assay: cynoBK1 receptor binding assay
Conditions: homogenate of CHO cells expressing cynomolgus BK1-receptor; radioligand 0.5 to 5.0 nM kallidin (DesArg10,Leu9), [3,4-Prolyl-3,43H(N)]; ambient temperature
Description: Description of the Method of Binding the cynoBK1-Receptor
CHO cells that express the cynomolgus BK1-receptor are cultivated in “HAM'S F-12 Medium”. The medium is removed from confluent cultures, the cells are washed with PBS buffer, scraped off or detached using Versene and isolated by centrifuging. Then the cells are homogenised in suspension, the homogenate is centrifuged and resuspended. After the protein content has been determined 200 μl of the homogenate (50 to 250 μg protein/assay) are incubated for 60-180 minutes at ambient temperature with 0.5 to 5.0 nM kallidin (DesArg10,Leu9), [3,4-Prolyl-3,43H(N)] and increasing concentrations of the test substance in a total volume of 250 μl. The incubation is stopped by rapid filtration through GF/B glass fibre filters that have been pre-treated with polyethyleneimine (0.3%). The radioactivity bound to the protein is measured with a TopCount NXT. The radioactivity bound in the presence of 1.0 μM kallidin (DesArg10) is defined as non-specific binding. The concentration binding curve may be analysed using computer-aided non-linear curve fitting to determine the corresponding Ki values for the test substance.

**Q.** With `O=C(N[C@@]1(C(=O)NCc2ncc(Nc3ccc(Cl)cc3C(F)(F)F)cc2F)CCOC1)c1cn[nH]c(=O)c1` [(5)] as the compound, how does the pKi read?
**A.** Its pKi is 8.25.
